This test can be described thus: Cytotoxicity against mouse L1210/0 cells after 48 hrs. It is filed as cell-based. Conditions: Mus musculus, L1210/0, 48 h.

The structures appear in SMILES notation.

As a reminder, the IC50 is the concentration that inhibits the measured activity by half.

On to `O=c1[nH]c(=O)n(COCCO)cc1Cl`, for which the IC50 is greater than 200 µM.

`O=c1ccn(COCCO)c(=O)[nH]1` returned an IC50 greater than 200 µM.

On to `Cc1cn(COCCO)c(=O)[nH]c1=O`, for which the IC50 is greater than 200 µM.

The compound `CC(O)Cn1cnc2c(F)nc(N)nc21` (stereo not drawn) returned an IC50 greater than 200 µM.

For `O=c1[nH]c(=O)n(COCCO)cc1I`, the IC50 is greater than 200 µM.

Compound `O=c1ccn(CC2CCC(CO)C2)c(=O)[nH]1` (stereo not drawn) displayed an IC50 greater than 200 µM.

`Nc1ccn(C[C@@H]2C[C@H](CO)c3ccccc32)c(=O)n1` registered an IC50 greater than 200 µM.

On to `CC(=O)OC(C)Cn1cnc2c(Cl)nc(N)nc21` (stereo not drawn), for which the IC50 is greater than 200 µM.

For `C[S+]([O-])c1cn([C@H]2C[C@H](O)[C@@H](CO)O2)c(=O)[nH]c1=O` (stereo partly drawn), the IC50 was greater than 200 µM.

`CC1(C)[C@@H](CCCO)C[C@H]1n1nnc2c(Cl)nc(N)nc21` gave an IC50 greater than 200 µM.

As to `OC[C@@H]1CCC[C@H]1n1cnc2c(O)ncnc21`, the 50% inhibitory concentration (IC50) is greater than 200 µM.

`COc1nc(I)nc2c1ncn2COCCO`: the IC50 was greater than 200 µM.

`O=c1[nH]c(=O)n([C@H]2C[C@H](O)[C@@H](CO)O2)cc1/C=C/Cl`: the IC50 is greater than 200 µM.

`O=c1ccn([C@@H]2C[C@H](CO)C[C@@H]2CO)c(=O)[nH]1` had an IC50 greater than 200 µM.

Compound `C[C@H](O)C1CC(Cn2nnc3c(=O)[nH]cnc32)C1(C)C` (stereo partly drawn) yielded an IC50 greater than 200 µM.

As to `CCCc1cn([C@H]2C[C@H](O)[C@@H](CO)O2)c(=O)[nH]c1=O`, the IC50 was greater than 200 µM.

In the case of `CNc1nc2c(=O)[nH]c(N)nc2n1COCCO`, the IC50 was greater than 200 µM.

`CC1(C)C(CO)CC1Cn1cnc2c(=O)[nH]c(N)nc21` (stereo not drawn): the IC50 was greater than 200 µM.

As for `COc1c(C)c(-c2cn([C@H]3C[C@H](O)[C@@H](CO)O3)c(=O)[nH]c2=O)c(OC)c2ccccc12`, the IC50 was greater than 200 µM.

`O=c1ccn([C@@H]2O[C@H](CO)[C@H](F)[C@@H]2O)c(=O)[nH]1`: the IC50 was greater than 200 µM.

`CC(C)(C)C#Cc1cn([C@@H]2O[C@H](CO)[C@@H](O)[C@@H]2O)c(=O)[nH]c1=O` came in with an IC50 greater than 200 µM.

Consider `CCC#Cc1cn([C@H]2C[C@H](O)[C@@H](CO)O2)c(=O)[nH]c1=O`, for which the IC50 was greater than 200 µM.

In turn, `Cc1ccc(S(=O)(=O)OCCC#Cc2cn([C@H]3C[C@H](O)[C@@H](CO)O3)c(=O)[nH]c2=O)cc1` had an IC50 greater than 200 µM.

Consider `COc1cc(-c2cn([C@H]3C[C@H](O)[C@@H](CO)O3)c(=O)[nH]c2=O)c(OC)c(C)c1C`, for which the IC50 is greater than 200 µM.

As to `CCC#Cc1cn([C@@H]2O[C@H](CO)[C@@H](O)[C@@H]2O)c(=O)[nH]c1=O`, the IC50 was greater than 200 µM.

For the compound `O=C1C=CN(COCCO)C(=O)C1`, the IC50 was greater than 200 µM.

`COCC#Cc1cn([C@H]2C[C@H](O)[C@@H](CO)O2)c(=O)[nH]c1=O` displayed an IC50 greater than 200 µM.

Regarding `CC(O)Cn1cnc2c(N)nc(I)nc21` (stereo not drawn), the IC50 was greater than 200 µM.

The compound `Nc1nc(O)c2nnn([C@H]3CCCC[C@H]3CO)c2n1` displayed an IC50 greater than 200 µM.

In the case of `O=c1ccn(C[C@@H]2CCC[C@H]2CO)c(=O)[nH]1`, the half-maximal inhibitory concentration (IC50) was greater than 200 µM.

The compound `CCCC/C=C\c1cn([C@H]2C[C@H](O)[C@@H](CO)O2)c(=O)[nH]c1=O` gave an IC50 greater than 200 µM.

In the case of `Nc1ncnc2c1ncn2C[C@@H]1CCC[C@H]1CO`, the IC50 was greater than 200 µM.

With `CC1(C)C(CO)CC1Cn1nnc2c(=O)[nH]c(N)nc21` (stereo not drawn), the IC50 is greater than 200 µM.

For `CN(C)c1nc2c(=O)[nH]c(N)nc2n1COCCO`, the IC50 was greater than 200 µM.

Turning to `CC1(C)[C@@H](CCCO)C[C@H]1n1cnc2c(=O)[nH]c(N)nc21`, the IC50 is greater than 200 µM.

For `Nc1nc(O)c2ncn([C@H]3CCCC[C@H]3CO)c2n1`, the IC50 was greater than 200 µM.

As for `CC1(C)[C@@H](CO)CC[C@@]1(C)Cn1ccc(=O)[nH]c1=O`, the concentration for half-maximal inhibition (IC50) was greater than 200 µM.

`C[C@H](O)C1CC(CCn2cnc3c(=O)[nH]cnc32)C1(C)C` (stereo partly drawn) displayed an IC50 greater than 200 µM.

The compound `Nc1nc2c(nc(O)n2COCCO)c(=O)[nH]1` registered an IC50 greater than 200 µM.

For `C=CC#Cc1cn([C@H]2C[C@H](O)[C@@H](CO)O2)c(=O)[nH]c1=O`, the IC50 was greater than 200 µM.

In turn, `Nc1nc(I)nc2c1ncn2COCCO` returned an IC50 greater than 200 µM.

In turn, `CC#Cc1cn([C@H]2C[C@H](O)[C@@H](CO)O2)c(=O)[nH]c1=O` gave an IC50 greater than 200 µM.

`O=c1[nH]c(=O)n([C@H]2C[C@H](O)[C@@H](CO)O2)cc1C#Cc1ccccc1` gave an IC50 greater than 200 µM.

Compound `CO/N=C/C1CC(n2cnc3c(N)ncnc32)C(O)C1O` (stereo not drawn) came in with an IC50 greater than 200 µM.

Compound `CC(C)(C)C#Cc1cn([C@H]2C[C@H](O)[C@@H](CO)O2)c(=O)[nH]c1=O` gave an IC50 greater than 200 µM.

`CC(O)Cn1cnc2c(S)nc(F)nc21` (stereo not drawn) gave an IC50 greater than 200 µM.

Turning to `CCCCC#Cc1cn([C@H]2C[C@H](O)[C@@H](CO)O2)c(=O)[nH]c1=O`, the IC50 was greater than 200 µM.

In the case of `CC1(C)[C@@H](CCCO)C[C@H]1n1nnc2c(=O)[nH]c(N)nc21`, the IC50 was greater than 200 µM.

`OC[C@@H]1CCC[C@H]1Cn1cnc2c(O)ncnc21`: the concentration for half-maximal inhibition (IC50) is greater than 200 µM.

Take `Nc1nc2c(nc(Br)n2COCCO)c(=O)[nH]1`: the IC50 was greater than 200 µM.

Compound `O=c1[nH]c(=O)n([C@H]2C[C@H](O)[C@@H](CO)O2)cc1C#CCCCO` came in with an IC50 greater than 200 µM.

For the compound `CCCCCCc1cn([C@H]2C[C@H](O)[C@@H](CO)O2)c(=O)[nH]c1=O`, the IC50 was greater than 200 µM.

`O=c1[nH]c(=O)n([C@H]2C[C@H](O)[C@@H](CO)O2)cc1O`: the half-maximal inhibitory concentration (IC50) was greater than 200 µM.

Compound `CC(O)Cn1cnc2c(Cl)nc(I)nc21` (stereo not drawn) yielded an IC50 greater than 200 µM.

`O=c1ccn(C[C@@H]2C[C@H](CO)c3ccccc32)c(=O)[nH]1` came in with an IC50 greater than 200 µM.

`C[C@H](O)C1CC(Cn2cnc3c(=O)[nH]cnc32)C1(C)C` (stereo partly drawn) registered an IC50 greater than 200 µM.

The compound `Nc1nc(Cl)c2ncn(COCCO)c2n1` had an IC50 greater than 200 µM.

The compound `O=c1[nH]c(=O)n(C2C[C@@H](CO)[C@@H](CO)C2)cc1I` (stereo partly drawn) returned an IC50 greater than 200 µM.

In turn, `O=c1[nH]c(=O)n(COCCO)cc1F` displayed an IC50 greater than 200 µM.

`Nc1ccn(COCCO)c(=O)n1` registered an IC50 greater than 200 µM.

`O=c1[nH]c(=O)n(COCCO)cc1Br`: the IC50 is greater than 200 µM.

For the compound `Nc1nc(=O)ccn1COCCO`, the IC50 is greater than 200 µM.

The compound `CC(=O)OCCOCn1cnc2c(Cl)nc(N)nc21` came in with an IC50 greater than 200 µM.

On to `CN(C)c1ncnc2c1ncn2COCCO`, for which the IC50 is greater than 200 µM.

The compound `COC1=C(OC)C(O)(CCn2cnc3c(Cl)ncnc32)OC1=O` (stereo not drawn) yielded an IC50 greater than 200 µM.

Take `COC1=C(OC)C(O)(CCn2cnc3c(N)ncnc32)OC1=O` (stereo not drawn): the IC50 is greater than 200 µM.

As to `O=c1[nH]c(=O)n(COCCO)cc1[N+](=O)[O-]`, the IC50 was greater than 200 µM.

Consider `CCCCCC#Cc1cn([C@H]2C[C@H](O)[C@@H](CO)O2)c(=O)[nH]c1=O`, for which the IC50 is greater than 200 µM.

Turning to `CC1(C)[C@@H](CO)CC[C@@]1(C)Cn1cc(Br)c(=O)[nH]c1=O`, the IC50 is greater than 200 µM.

On to `O=c1[nH]c(=O)n([C@@H]2CCC[C@H]2CO)cc1I`, for which the IC50 is greater than 200 µM.

In turn, `O=c1ccn([C@@H]2CCC[C@H]2CO)c(=O)[nH]1` had an IC50 greater than 200 µM.

Take `CC1(C)[C@@H](CCCO)C[C@H]1n1cnc2c(Cl)nc(N)nc21`: the IC50 is greater than 200 µM.

As to `CSc1cn([C@H]2C[C@H](O)[C@@H](CO)O2)c(=O)[nH]c1=O`, the IC50 was greater than 200 µM.

`N#Cc1cn([C@H]2C[C@H](O)[C@@H](CO)O2)c(=O)[nH]c1=O` yielded an IC50 greater than 200 µM.

`O=c1[nH]cnc2c1nnn2[C@@H]1C[C@H](CO)[C@@H](CO)[C@H]1CO` returned an IC50 greater than 200 µM.

With `O=c1[nH]c(=O)n([C@H]2C[C@H](O)[C@@H](CO)O2)cc1C#CCO`, the IC50 was greater than 200 µM.

For the compound `CC(=O)OC(C)Cn1cnc2c(N)nc(I)nc21` (stereo not drawn), the IC50 was greater than 200 µM.

`O=c1[nH]c(=O)n([C@H]2C[C@H](O)[C@@H](CO)O2)cc1C#CCCO`: the IC50 was greater than 200 µM.

Compound `CC1(C)[C@@H](CCCO)C[C@H]1n1nnc2c(N)nc(N)nc21` gave an IC50 greater than 200 µM.

Compound `O=c1[nH]c(=O)n(C[C@H]2CCC[C@H]2CO)cc1I` had an IC50 greater than 200 µM.

In turn, `C#COc1cn([C@H]2C[C@H](O)[C@@H](CO)O2)c(=O)[nH]c1=O` yielded an IC50 greater than 200 µM.

As to `OCCOCn1cnc2c(O)ncnc21`, the IC50 is greater than 200 µM.

Compound `CC1(C)[C@@H](CO)CC[C@@]1(C)Cn1cnc2c(=O)[nH]cnc21` displayed an IC50 greater than 200 µM.

`O=c1[nH]cnc2c1ncn2C1CC(CO)C(CO)C1` (stereo not drawn) came in with an IC50 greater than 200 µM.

For `CS(=O)(=O)Cc1cn([C@H]2C[C@H](O)[C@@H](CO)O2)c(=O)[nH]c1=O`, the half-maximal inhibitory concentration (IC50) is greater than 200 µM.

Compound `O=c1[nH]c(=O)n([C@H]2C[C@H](O)[C@@H](CO)O2)cc1C1SCCS1` came in with an IC50 greater than 200 µM.

In turn, `Nc1nc2c(nc(Cl)n2COCCO)c(=O)[nH]1` had an IC50 greater than 200 µM.

For the compound `OC[C@H]1C[C@@H](Cn2cnc3c(O)ncnc32)c2ccccc21`, the IC50 is greater than 200 µM.

`CCCC#Cc1cn([C@H]2C[C@H](O)[C@@H](CO)O2)c(=O)[nH]c1=O` yielded an IC50 greater than 200 µM.

`O=c1[nH]cnc2c1nnn2CC1CCC(CO)C1` (stereo not drawn) gave an IC50 greater than 200 µM.

The compound `O=c1[nH]c(=O)n(CC2CCC(CO)C2)cc1I` (stereo not drawn) showed an IC50 greater than 200 µM.

Consider `CCO/N=C\C1OC(n2cnc3c(N)ncnc32)C(O)C1O` (stereo not drawn), for which the IC50 is greater than 200 µM.

In turn, `Nc1nc2c(nc(N)n2COCCO)c(=O)[nH]1` came in with an IC50 greater than 200 µM.

Consider `CC1(C)[C@@H](CO)CC[C@@]1(C)Cn1cc(I)c(=O)[nH]c1=O`, for which the IC50 was greater than 200 µM.

In turn, `O=c1[nH]cnc2c1nnn2C[C@H]1CCC[C@H]1CO` showed an IC50 greater than 200 µM.

In turn, `O=c1[nH]cnc2c1ncn2CC1CCC(CO)C1` (stereo not drawn) had an IC50 greater than 200 µM.

In turn, `Nc1nc(=O)n(COCCO)cc1[N+](=O)[O-]` returned an IC50 greater than 200 µM.

In the case of `O=c1[nH]cnc2c1ncn2[C@@H]1C[C@@H]2COC[C@H]2[C@H]1CO`, the concentration for half-maximal inhibition (IC50) is greater than 200 µM.

With `Cc1cn(C[C@@H]2C[C@H](CO)c3ccccc32)c(=O)[nH]c1=O`, the IC50 is greater than 200 µM.

As to `Nc1ncnc2c1ncn2C1OC(/C=N/O)CC1O` (stereo not drawn), the concentration for half-maximal inhibition (IC50) was greater than 200 µM.

As for `COc1c(C)c(C)c(OC)c(-c2cn([C@H]3C[C@H](O)[C@@H](CO)O3)c(=O)[nH]c2=O)c1C`, the IC50 is greater than 200 µM.

For the compound `O=c1[nH]c(=O)n([C@@H]2C[C@H](CO)C[C@@H]2CO)cc1I`, the IC50 was greater than 200 µM.

In turn, `CC1(C)[C@@H](CO)CC[C@@]1(C)Cn1nnc2c(=O)[nH]cnc21` gave an IC50 greater than 200 µM.

For the origin of these results see ChEMBL document CHEMBL1142978, “Probing the anticancer activity of nucleoside analogues: a QSAR model approach using an internally consistent training set” (J Med Chem, 2007).
